{
  "source": "patent US6358736B1",
  "about": "“Method for increasing the antigen presenting ability of leukemia cells” (The United States of America as represented by the …, priority 1995, dated 2002)",
  "molecules": {"B1": {"name": "rhIL-12: recombinant human IL-12 (protein, UniProt P29459 23-219; P29460 23-328, looked up)", "Interleukin-12 subunit alpha": "RNLPVATPDPGMFPCLHHSQNLLRAVSNMLQKARQTLEFYPCTSEEIDHEDITKDKTSTVEACLPLELTKNESCLNSRETSFITNGSCLASRKTSFMMALCLSSIYEDLKMYQVEFKTMNAKLLMDPKRQIFLDQNMLAVIDELMQALNFNSETVPQKSSLEEPDFYKTKIKLCILLHAFRIRAVTIDRVMSYLNAS", "Interleukin-12 subunit beta": "IWELKKDVYVVELDWYPDAPGEMVVLTCDTPEEDGITWTLDQSSEVLGSGKTLTIQVKEFGDAGQYTCHKGGEVLSHSLLLLHKKEDGIWSTDILKDQKEPKNKTFLRCEAKNYSGRFTCWWLTTISTDLTFSVKSSRGSSDPQGVTCGAATLSAERVRGDNKEYEYSVECQEDSACPAAEESLPIEVMVDAVHKLKYENYTSSFFIRDIIKPDPPKNLQLKPLKNSRQVEVSWEYPDTWSTPHSYFSLTFCVQVQGKSKREKKDRVFTDKTSATVICRKNASISVRAQDRYYSSSWSEWASVPCS"}, "B2": {"name": "rhIL-10: recombinant human IL-10 (protein, UniProt P22301 19-178, looked up)", "Interleukin-10": "SPGQGTQSENSCTHFPGNLPNMLRDLRDAFSRVKTFFQMKDQLDNLLLKESLLEDFKGYLGCQALSEMIQFYLEEVMPQAENQDPDIKAHVNSLGENLKTLRLRLRRCHRFLPCENKSKAVEQVKNAFNKLQEKGIYKAMSEFDIFINYIEAYMTMKIRN"}, "B3": {"name": "RANTES: chemokine inducing monocyte chemotaxis (protein, UniProt P13501 24-91, looked up)", "C-C motif chemokine 5": "SPYSSDTTPCCFAYIARPLPRAHIKEYFYTSGKCSNPAVVFVTRKNRQVCANPEKKWVREYINSLEMS"}, "B4": {"name": "MIP-1-alpha: chemokine inducing monocyte chemotaxis (protein, UniProt P10147 24-92, looked up)", "C-C motif chemokine 3": "SLAADTPTACCFSYTSRQIPQNFIADYFETSSQCSKPGVIFLTKRSRQVCADPSEEWVQKYVSDLELSA"}, "B5": {"name": "rhIL-1 alpha: recombinant human IL-1 alpha (protein, UniProt P01583 113-271, looked up)", "Interleukin-1 alpha": "SAPFSFLSNVKYNFMRIIKYEFILNDALNQSIIRANDQYLTAAALHNLDEAVKFDMGAYKSSKDDAKITVILRISKTQLYVTAQDEDQPVLLKEMPEIPKTITGSETNLLFFWETHGTKNYFTSVAHPNLFIATKQDYWVCLAGGPPSITDFQILENQA"}},
  "system": "human peripheral blood monocytes",
  "assay": "FACS analysis of cell surface markers on cultured peripheral blood monocytes",
  "type": "cell-based",
  "conditions": "for effect of agent on ionophore-induced activated myeloid dendritic cell phenotype: added to calcium ionophore treatment; for induction of activated myeloid dendritic cell phenotype (CD80 and CD83 expression): 20-40 hours, wide dose range, alone or in combination",
  "key": {"[1]": {"conditions": "KT5926 1 uM, 750 ng/ml ionophore, 24 hours"}},
  "note": "“Also recorded” adds a separate entry of the source.",
  "data": [
    {"molecule": "C[C@H]1O[C@@H](n2cnc3c(N)ncnc32)C[C@@H]1O", "note": "[2′5′-DDA]", "values": [
      {"measurement": "effect of agent on ionophore-induced activated myeloid dendritic cell phenotype", "result": "enhanced CD14 downregulation and upregulation of costimulatory, MHC, and other molecule expression"}
    ]},
    {"molecule": "CN([C@@H](Cc1ccc(OS(=O)(=O)c2cccc3cnccc23)cc1)C(=O)N1CCN(c2ccccc2)CC1)S(=O)(=O)c1cccc2cnccc12", "note": "[KN-62]", "values": [
      {"measurement": "effect of agent on ionophore-induced activated myeloid dendritic cell phenotype", "result": "inhibited at least some of the ionophore's effects"}
    ]},
    {"molecule": "COC(=O)[C@@]1(OC)C[C@H]2O[C@]1(C)n1c3ccccc3c3c4c(c5c6ccccc6n2c5c31)C(=O)N(C)C4", "note": "[KT5823]", "values": [
      {"measurement": "effect of agent on ionophore-induced activated myeloid dendritic cell phenotype", "result": "inhibited at least some of the ionophore's effects"}
    ]},
    {"molecule": "CCCOc1ccc2c(c1)c1c3c(c4c5ccccc5n5c4c1n2[C@H]1C[C@](O)(C(=O)OC)[C@]5(C)O1)CNC3=O", "note": "[KT-5926]", "values": [
      {"measurement": "suppression of CD40", "setting": "[1]", "result": "> 50", "unit": "%"},
      {"measurement": "suppression of CD80", "setting": "[1]", "result": "> 60", "unit": "%"},
      {"measurement": "suppression of CD86", "setting": "[1]", "result": "about 50%"},
      {"measurement": "suppression of HLA-ABC", "setting": "[1]", "result": "over 40%"},
      {"measurement": "suppression of HLA-DR", "setting": "[1]", "result": "modest, but detectable suppression"},
      {"measurement": "effect of agent on ionophore-induced activated myeloid dendritic cell phenotype", "result": "inhibited at least some of the ionophore's effects"}
    ]},
    {"molecule": "CCCCC[C@H](O)/C=C/[C@H]1[C@H](O)CC(=O)[C@@H]1C/C=C\\CCCC(=O)O", "note": "[PGE2]", "values": [
      {"measurement": "effect of agent on ionophore-induced activated myeloid dendritic cell phenotype", "result": "inhibited at least some of the ionophore's effects"}
    ]},
    {"molecule": "C[C@@H]1[C@H](O)[C@@H](C)/C=C/C=C/C=C/C=C/C=C/C=C/C=C/[C@H](O[C@@H]2O[C@H](C)[C@@H](O)[C@H](N)[C@@H]2O)C[C@@H]2O[C@](O)(C[C@@H](O)C[C@@H](O)[C@H](O)CC[C@@H](O)C[C@@H](O)CC(=O)O[C@H]1C)C[C@H](O)[C@H]2C(=O)O", "note": "[amphotericin B]", "values": [
      {"measurement": "effect of agent on ionophore-induced activated myeloid dendritic cell phenotype", "result": "enhanced the induction of an activated myeloid dendritic cell phenotype; also recorded: enhance calcium ionophore's effect"},
      {"measurement": "effect of agent alone on monocytes", "setting": "without ionophore", "result": "no or little effect alone"}
    ]},
    {"molecule": "CCCC(=O)Nc1ncnc2c1ncn2[C@@H]1O[C@@H]2COP(=O)(O)O[C@H]2[C@H]1OC(=O)CCC", "note": "[dibutryl cAMP]", "values": [
      {"measurement": "effect of agent on ionophore-induced activated myeloid dendritic cell phenotype", "result": "inhibited at least some of the ionophore's effects"}
    ]},
    {"molecule": "CCCC(=O)Nc1nc2c(ncn2C2O[C@H]3COP(=O)(O)O[C@@H]3[C@@H]2OC(=O)CCC)c(=O)[nH]1", "note": "(stereo partly drawn) [dibutryl cGMP]", "values": [
      {"measurement": "effect of agent on ionophore-induced activated myeloid dendritic cell phenotype", "result": "enhanced CD14 downregulation and upregulation of costimulatory, MHC, and other molecule expression"}
    ]},
    {"molecule": "CO[C@H]1[C@@H](OC)C[C@H](C)[C@@H](OC)C2=CC(=O)C=C(NC(=O)/C(C)=C/C=C\\[C@H](OC)[C@@H](OC(N)=O)/C(C)=C/[C@@H]1C)C2=O", "note": "[herbimycin A]", "values": [
      {"measurement": "effect of agent on ionophore-induced activated myeloid dendritic cell phenotype", "result": "inhibited at least some of the ionophore's effects"}
    ]},
    {"molecule": "C[C@H](CCC(=O)O)C[C@H](C)C[C@H](C)C(=O)/C=C(\\O)[C@H](C)C[C@H](C)C/C=C/[C@@H](C)[C@@H](O)[C@@H](C)[C@@H](O)C[C@@H]1CC[C@@](C)([C@H]2CC[C@@](C)([C@@H](C)O)O2)O1", "note": "[ionomycin]", "values": [
      {"measurement": "activation and dendritic cell phenotypic conversion of pooled monocyte plus DC fractions", "setting": "added at the beginning of a 24-48 hr culture period", "result": "uniform activation and dendritic cell phenotypic conversion"}
    ]},
    {"molecule": "C=C1[C@@H](O)[C@@H]2O[C@]3(CC[C@H](/C=C/[C@@H](C)[C@@H]4CC(C)=C[C@@]5(O[C@H](C[C@@](C)(O)C(=O)O)CC[C@H]5O)O4)O3)CC[C@H]2O[C@@H]1[C@@H](O)C[C@H](C)[C@H]1O[C@@]2(CCCCO2)CC[C@H]1C", "note": "[okadaic acid]", "values": [
      {"measurement": "effect of agent on ionophore-induced activated myeloid dendritic cell phenotype", "result": "enhanced CD14 downregulation and upregulation of costimulatory, MHC, and other molecule expression"}
    ]},
    {"molecule": "C[C@]12C=CC(=O)C=C1CC[C@@H]1[C@@H]2[C@@H](O)C[C@@]2(C)[C@H]1CC[C@]2(O)C(=O)CO", "note": "[prednisolone]", "values": [
      {"measurement": "effect of agent on ionophore-induced activated myeloid dendritic cell phenotype", "result": "inhibited at least some of the ionophore's effects"}
    ]},
    {"molecule": "CN[C@@H]1C[C@H]2O[C@@](C)([C@@H]1OC)n1c3ccccc3c3c4c(c5c6ccccc6n2c5c31)C(=O)NC4", "note": "[staurosporine]", "values": [
      {"measurement": "effect of agent on ionophore-induced activated myeloid dendritic cell phenotype", "result": "enhanced CD14 downregulation and upregulation of costimulatory, MHC, and other molecule expression"}
    ]},
    {"molecule": "MCP-1: chemokine inducing monocyte chemotaxis", "values": [
      {"measurement": "induction of activated myeloid dendritic cell phenotype (CD80 and CD83 expression)", "result": "do not induce monocytes to express the phenotype of activated myeloid dendritic cells"}
    ]},
    {"molecule": "rhIL-4: recombinant human IL-4", "values": [
      {"measurement": "effect of agent on ionophore-induced activated myeloid dendritic cell phenotype", "result": "enhanced CD14 downregulation and upregulation of costimulatory, MHC, and other molecule expression"}
    ]},
    {"molecule": "rhIL-6: recombinant human IL-6", "values": [
      {"measurement": "effect of agent on ionophore-induced activated myeloid dendritic cell phenotype", "result": "little or no effect"}
    ]},
    {"molecule": "B1", "values": [
      {"measurement": "effect of agent on ionophore-induced activated myeloid dendritic cell phenotype", "result": "enhanced CD14 downregulation and upregulation of costimulatory, MHC, and other molecule expression"}
    ]},
    {"molecule": "B2", "values": [
      {"measurement": "effect of agent on ionophore-induced activated myeloid dendritic cell phenotype", "result": "inhibited at least some of the ionophore's effects"}
    ]},
    {"molecule": "B3", "values": [
      {"measurement": "induction of activated myeloid dendritic cell phenotype (CD80 and CD83 expression)", "result": "do not induce monocytes to express the phenotype of activated myeloid dendritic cells"}
    ]},
    {"molecule": "B4", "values": [
      {"measurement": "induction of activated myeloid dendritic cell phenotype (CD80 and CD83 expression)", "result": "do not induce monocytes to express the phenotype of activated myeloid dendritic cells"}
    ]},
    {"molecule": "B5", "values": [
      {"measurement": "effect of agent on ionophore-induced activated myeloid dendritic cell phenotype", "result": "little or no effect"}
    ]}
  ]
}
